Assays:
[1] = target: T1, α-glucosidase (yeast origin) (Saccharomyces cerevisiae, UniProt P53341); assay: α-glucosidase (yeast) inhibition assay, PNPG substrate, 96-well; format: biochemical; conditions: two independent assays, performed in duplicate, 37 °C, 10 min, read-out: IC50s α-glucosidase (yeast)
T1 construct: purchased Sigma Aldrich
Description: The test compounds were dissolved and diluted in dimethyl sulfoxide (DMSO). They were placed in the plate along with the substrate and 10 mM of potassium sulphate buffer. They were then reacted with appropriate enzymes. After incubating the plates for ten minutes, the absorbance of the wells were measured at 430 nM. The increase in abundance (ΔA) was compared against the control i.e. buffer.
The inhibitory effect of the synthesized compounds on α-glucosidase (yeast origin), α-fucosidase (bovine kidney origin) and α-mannosidase (jack bean origin) inhibitory activity was determined in 96-well plates employing the substrate PNPG and 4-nitrophenyl α-D-glucopyranoside according to the procedure previously reported by Ferreres et al.[42]. Prior to use, all test compounds were solubilised in solvent, dimethylsulfoxide (DMSO), and then further diluted in DMSO to acquire the desired final maximum test concentration. […] The absorbance was measured spectrophotometrically at 430 nm (Spectra Max M5e micro plate reader). The increase in absorbance (ΔA) was compared with that of the control (buffer instead of test compound) to compute the inhibitory concentrations (IC50) which was determined from two independent assays, performed in duplicate.

[2] = target: T2, α-fucosidase (bovine kidney origin) (Bos taurus, UniProt Q2KIM0); assay: α-fucosidase inhibition assay, 96-well; format: biochemical; conditions: two independent assays, performed in duplicate; read-out: IC50s α-fucosidase (bovine kidney)
T2 construct: purchased Sigma Aldrich; host or cells: bovine kidney
T2 sequence (Q2KIM0 23-468): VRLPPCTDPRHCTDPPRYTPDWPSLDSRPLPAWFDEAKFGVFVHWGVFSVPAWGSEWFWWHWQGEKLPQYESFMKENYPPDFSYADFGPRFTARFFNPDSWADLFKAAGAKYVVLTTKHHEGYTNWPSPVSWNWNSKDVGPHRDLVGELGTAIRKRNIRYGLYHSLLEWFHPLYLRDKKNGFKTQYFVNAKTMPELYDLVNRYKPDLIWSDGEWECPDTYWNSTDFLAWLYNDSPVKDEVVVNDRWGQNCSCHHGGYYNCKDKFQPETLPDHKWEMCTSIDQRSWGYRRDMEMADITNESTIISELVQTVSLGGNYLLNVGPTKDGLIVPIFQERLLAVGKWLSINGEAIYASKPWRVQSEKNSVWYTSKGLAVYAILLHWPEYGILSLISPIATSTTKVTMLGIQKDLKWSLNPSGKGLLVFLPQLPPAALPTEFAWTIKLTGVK
Description: (§1) To assess the inhibitory effect and also the extent of selectivity our library was against α-glucosidase (yeast origin), α-fucosidase (bovine kidney origin) and α-mannosidase (jack bean origin) (in 96-well plates employing 4-nitrophenyl-α-D-glucopyranoside (PNPG) as substrate) (Table 1). The test compounds were dissolved and diluted in dimethyl sulfoxide (DMSO). They were placed in the plate along with the substrate and 10 mM of potassium […] buffer. They were then reacted with appropriate enzymes. After incubating the plates for ten minutes, the absorbance of the wells were measured at […]. The increase in […] (ΔA) was compared against the control i.e. buffer.
(§2) The inhibitory effect of the synthesized compounds on α-glucosidase (yeast origin), α-fucosidase (bovine kidney origin) and α-mannosidase (jack bean origin) inhibitory activity was determined in 96-well plates employing the substrate PNPG and 4-nitrophenyl α-D-glucopyranoside according to the procedure previously reported by Ferreres et al.[42]. […] The absorbance was measured spectrophotometrically at 430 nm (Spectra Max M5e micro plate reader). The increase in absorbance (ΔA) was compared with that of the control (buffer instead of test compound) to compute the inhibitory concentrations (IC50) which was determined from two independent assays, performed in duplicate. […]

[3] = target: T3, α-mannosidase (jack bean origin) (Canavalia ensiformis, UniProt C0HJB3); assay: α-mannosidase inhibition assay, 96-well; format: biochemical; conditions: two independent assays, performed in duplicate; read-out: IC50s α-mannosidase (jack bean)
T3 construct: purchased Sigma Aldrich; host or cells: jack bean
T3 sequence (C0HJB3 1-981): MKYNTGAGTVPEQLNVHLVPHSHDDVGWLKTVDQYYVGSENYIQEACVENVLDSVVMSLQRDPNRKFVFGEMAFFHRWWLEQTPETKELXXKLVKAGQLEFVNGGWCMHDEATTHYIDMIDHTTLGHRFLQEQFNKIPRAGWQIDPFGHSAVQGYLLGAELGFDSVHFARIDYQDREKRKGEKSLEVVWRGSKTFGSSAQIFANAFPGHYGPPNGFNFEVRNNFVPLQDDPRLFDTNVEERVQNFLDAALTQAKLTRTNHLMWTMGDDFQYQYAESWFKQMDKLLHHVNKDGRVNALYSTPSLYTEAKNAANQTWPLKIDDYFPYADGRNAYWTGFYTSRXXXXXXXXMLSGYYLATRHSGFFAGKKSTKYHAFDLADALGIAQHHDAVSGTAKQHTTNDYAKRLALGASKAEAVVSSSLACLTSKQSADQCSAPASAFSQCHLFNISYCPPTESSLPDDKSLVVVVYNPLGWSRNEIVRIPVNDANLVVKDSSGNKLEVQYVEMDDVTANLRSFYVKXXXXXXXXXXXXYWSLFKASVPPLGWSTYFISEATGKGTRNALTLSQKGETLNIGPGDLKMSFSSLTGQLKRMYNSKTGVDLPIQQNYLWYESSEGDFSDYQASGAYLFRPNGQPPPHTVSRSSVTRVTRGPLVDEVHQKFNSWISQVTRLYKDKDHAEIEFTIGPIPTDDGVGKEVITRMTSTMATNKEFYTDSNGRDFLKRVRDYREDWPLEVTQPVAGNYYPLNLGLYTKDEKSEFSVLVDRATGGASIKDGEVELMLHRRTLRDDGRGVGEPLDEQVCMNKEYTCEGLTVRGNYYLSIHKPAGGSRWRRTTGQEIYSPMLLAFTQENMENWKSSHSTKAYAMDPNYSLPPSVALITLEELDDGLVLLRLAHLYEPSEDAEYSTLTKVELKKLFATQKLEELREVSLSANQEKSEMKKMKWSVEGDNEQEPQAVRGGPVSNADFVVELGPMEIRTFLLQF
Description: as §1, §2

[4] = parameters: method as in doi:10.1016/S0065-7743(08)60834-9; conditions: cited from earlier work
[5] = test system: NA-STZ-diabetic mice; parameters: method as in PMID 20879744; conditions: 10, 31.2 and 56.2 mg/Kg; cited from earlier work

T1 sequence (P53341 whole entry): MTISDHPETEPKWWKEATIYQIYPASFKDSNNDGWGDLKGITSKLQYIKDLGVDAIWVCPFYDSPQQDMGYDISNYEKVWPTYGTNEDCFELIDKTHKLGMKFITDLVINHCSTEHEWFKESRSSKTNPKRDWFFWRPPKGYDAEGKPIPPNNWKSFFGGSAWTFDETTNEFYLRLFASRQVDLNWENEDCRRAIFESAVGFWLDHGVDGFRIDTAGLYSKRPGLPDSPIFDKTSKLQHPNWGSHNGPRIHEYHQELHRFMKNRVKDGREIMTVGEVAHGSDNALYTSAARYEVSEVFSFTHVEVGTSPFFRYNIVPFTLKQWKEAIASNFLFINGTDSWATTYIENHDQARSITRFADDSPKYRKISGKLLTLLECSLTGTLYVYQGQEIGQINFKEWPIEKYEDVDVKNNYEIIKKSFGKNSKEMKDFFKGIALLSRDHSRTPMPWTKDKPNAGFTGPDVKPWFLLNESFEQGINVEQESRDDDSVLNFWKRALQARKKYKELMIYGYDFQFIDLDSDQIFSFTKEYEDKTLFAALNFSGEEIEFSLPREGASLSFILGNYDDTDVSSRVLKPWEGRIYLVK

With `O=C(Cc1ccccc1Br)c1ccccc1C(=O)NCCc1ccccc1` [3o] the IC50 [1] was 6.93 µM, the IC50 [2] was > 50 µM and the IC50 [3] was > 50 µM.

In the case of `CS(=O)(=O)c1ccc(-n2nc(C(F)(F)F)cc2-c2ccc(F)cc2)cc1` [SC-58125], the half-life [4] is given as ~ 200 h.

For `CCCC=C1OC(=O)c2ccccc21` [compound 2], the blood glucose level [5] is listed as “lowered blood glucose level”.

From article PMC5643545, “A novel library of -arylketones as potential inhibitors of α-glucosidase: Their design, synthesis, in vitro and in vivo studies” (Scientific Reports, 2017)
